Measured values taken from patent publication EP0024348A1, “Substituted 6-Phenethyl-and phenylethenyl-3,4,5,6-tetrahydro-4-hydroxytetraydropyran-2-ones in the4-R trans stereoisomeric forms and the corresponding dihydroxy acids, process for preparing and pharmaceutical composition comprising them” (Merck & Co., Inc., priority 1979, dated 1981).
Counter-ions that a name gives are not always drawn.

Biological target: T1, 3-hydroxy-3-methylglutaryl coenzyme A reductase (Rattus norvegicus, UniProt P51639)
T1 sequence (P51639 1-887): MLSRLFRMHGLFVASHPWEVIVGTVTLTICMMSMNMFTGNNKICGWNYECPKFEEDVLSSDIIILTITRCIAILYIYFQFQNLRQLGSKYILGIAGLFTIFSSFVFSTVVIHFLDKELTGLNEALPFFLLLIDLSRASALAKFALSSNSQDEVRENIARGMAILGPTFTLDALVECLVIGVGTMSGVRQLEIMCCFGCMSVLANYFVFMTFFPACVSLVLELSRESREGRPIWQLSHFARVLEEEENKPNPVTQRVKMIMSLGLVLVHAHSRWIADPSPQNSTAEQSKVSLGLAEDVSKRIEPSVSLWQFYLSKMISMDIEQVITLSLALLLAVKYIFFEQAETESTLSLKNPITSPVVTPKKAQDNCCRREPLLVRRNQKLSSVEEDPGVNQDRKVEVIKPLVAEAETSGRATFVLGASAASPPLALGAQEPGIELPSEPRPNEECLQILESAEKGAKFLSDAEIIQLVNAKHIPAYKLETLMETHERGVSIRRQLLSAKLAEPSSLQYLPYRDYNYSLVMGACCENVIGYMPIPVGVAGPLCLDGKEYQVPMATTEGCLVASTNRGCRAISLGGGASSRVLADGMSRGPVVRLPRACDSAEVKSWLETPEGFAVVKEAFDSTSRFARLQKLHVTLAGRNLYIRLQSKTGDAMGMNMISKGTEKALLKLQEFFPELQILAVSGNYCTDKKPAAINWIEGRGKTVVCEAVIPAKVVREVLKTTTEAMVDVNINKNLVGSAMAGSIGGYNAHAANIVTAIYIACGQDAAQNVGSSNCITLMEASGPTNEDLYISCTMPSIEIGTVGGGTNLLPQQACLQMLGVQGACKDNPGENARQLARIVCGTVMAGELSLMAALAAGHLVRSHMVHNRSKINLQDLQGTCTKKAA
Test: Method A: in vitro enzyme inhibition by the method of Knauss et al.
Format: biochemical
Description: The inhibitory activity of these compounds for the biosynthesis of cholesterol has been measured by two methods. The experimental method A has been realized in vitro by the method of H. J. Knauss, et al., J. Biol. Chem., 234, 2835 (1959) and the activity was expressed as the molar concentration IC50(M) necessary for the inhibition of 50% of the enzymatic activity. The experimental method B was the method of A. A. Kandutsch, et al., J. Biol. Chem., 248, 8403 (1973) for measuring the quantity of ^14C-cholesterol biosynthesis from acetic acid-^14C in mouse L cells. The activity is expressed for inhibition of 50% of the biosynthesis of cholesterol.

Row | Compound | potency compared with compactin (both tested as the sodium salts of their corresponding hydroxy acid forms) | IC50 (tested as the sodium salts of their corresponding hydroxy acid forms, method not restated) [µM] | IC50 (test by method A) [µM]
1 | O=C(O)C[C@H](O)C[C@H](O)/C=C/c1c(Cl)cc(Cl)cc1-c1ccc(F)cc1 (single isomer, unassigned) [Example 38, (+)-(E)-(3R*, 5S*)-7-(3,5-dichloro-4'-fluoro[1,1'-biphenyl]-2y1)-3,5-dihydroxy-6-heptenoic acid, ammonium salt] | greater than that of compactin | ~0.0028 | 
2 | O=C1C[C@H](O)C[C@@H](CCc2c(Cl)cc(Cl)cc2OCc2ccccc2)O1 (single isomer, unassigned) [Example 14, (+)-Trans-6-[2-(2,4-dichloro-6-phenylmethoxyphenyl)ethyl]-3,4,5,6-tetrahydro-4-hydroxy-2H-pyran-2-one] |  |  | 0.068
